Key:
PC-6 = assay: Cytotoxicity against human PC6 cells by MTT assay; type: functional, cell-based
[1] = Cytotoxicity against human U251SP cells by MTT assay; type: functional, cell-based

SMILES	IC50 (PC-6)	IC50 [1]
COc1c(O)cc2c(c1OC)C(=O)c1ccc(C)cc1C2=O	52.2 µM	
COc1cc(O)c(C(=O)/C=C/c2ccc(O)cc2)c(OC)c1OC		92.7 µM

From ChEMBL document CHEMBL2203160, “PPARγ agonist from Chromolaena odorata” (J Nat Prod, 2012)
